We go through one compound from US9458123B2, “Methods, pharmaceutical compositions, therapeutic systems, and compounds for treating B cell malignancies” (University of Rochester, priority 2012, dated 2016).

Experiment [1] deals with IκBα phosphorylation by LPS in MEF cells. The experiment in a line: IκBα phosphorylation after LPS, western blot. The experiment is classed as cell-based, Mouse. Conditions: LPS 1.5 μg/ml. Here is the method: SUDHL-6, RAW264.7, and MEF cells were treated with NSC697923 or DMSO (control) for 1 hour before being stimulated with the PMA (100 ng/ml), RANKL (15 ng/ml), and LPS (1.5 μg/ml) for the indicated times. The levels of IκBα phosphorylation in the indicated samples were assessed by western blotting.
HEK293T cells were grown in DMEM supplemented with 10% fetal bovine serum (FBS). Diffuse large B cell lymphoma (DLBCL) cells SUDHL-6, OCI-Ly3, OCI-Ly7, OCLLy10, and HBL-1 were cultured as previously described (Davis et al., “Constitutive Nuclear Factor KappaB Activity is Required for Survival of Activated B Cell-Like Diffuse Large B Cell Lymphoma Cells,” J. Exp. Med. 194:1861-1874 (2001) and Kim et al., “Protein Kinase C-Associated Kinase is Required for NF-kappaB Signaling and Survival in Diffuse Large B-Cell Lymphoma Cells,” Blood 111:1644-1653 (2008), each of which is hereby incorporated by reference in its entirety). RAW264.7 cells were cultured in α-MEM medium supplemented with 10% FBS. Mouse embryo fibroblasts (“MEFs”) were prepared from day 14 embryos as previously described (Kamijo et al., “Tumor Suppression at the Mouse INK4a Locus Mediated by the Alternative Reading Frame Product p19ARF,” Cell 91:649-659 (1997), which is hereby incorporated by reference in its entirety). MEFs with less than four passages were used for the experiments described here. […]
In general terms: Immunoblotting shows a protein as a band on a membrane.

The target in a further experiment is T1, Ubc13-Uev1A (Homo sapiens, UniProt P61088).
T1 construct: purchased Boston Biochem Inc E2-600 (Ubc13); E2-662 (Uev1A)
T1 sequence (P61088 whole entry): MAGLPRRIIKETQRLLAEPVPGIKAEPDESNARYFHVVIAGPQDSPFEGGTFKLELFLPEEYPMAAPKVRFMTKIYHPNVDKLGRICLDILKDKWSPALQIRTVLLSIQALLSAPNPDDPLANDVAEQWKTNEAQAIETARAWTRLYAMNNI
T1 sequence (Q13404 whole entry partner): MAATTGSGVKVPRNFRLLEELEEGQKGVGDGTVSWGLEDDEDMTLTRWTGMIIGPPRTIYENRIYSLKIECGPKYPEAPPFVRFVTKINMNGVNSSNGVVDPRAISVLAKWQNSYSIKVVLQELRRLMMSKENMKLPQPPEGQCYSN
The experiment in a line: In vitro ubiquitination assay, Ubc13-Uev1A. The experiment is classed as biochemical. Here is the method:
The in vitro reaction, which contains purified E1, ubiquitin, Ubc13, and Uev1A, was carried out with or without the indicated concentrations of NSC697923. The reaction products were analyzed by a ubiquitin-specific antibody on western blots. FIG. 4B is the same as FIG. 4A, except that purified GST-TRAF6 was included as the E3 in the complete reaction as indicated. […] The assay was carried out as in FIG. 4B, except that UbcHSc instead of Ubc13-Uev1A was used as the E2 in the ubiquitination reaction.
The purified recombinant proteins used in the in vitro ubiquitination reactions were all purchased from Boston Biochem Inc, except GST-TRAF6, which was expressed and purified as described above. The reactions were carried out at 37° C. for 40 minutes in a buffer containing 50 mM Tris-HCl, pH 7.5, 5 mM MgCl2, 200 μM ATP, 120 μM ubiquitin (U-100H), and 0.1 μM E1 (E-304). For the Ubc13-mediated ubiquitin chain synthesis, the reaction mixture includes 0.2 μM Ubc13 (E2-600) and […] Uev1A (E2-662) with or without GST-TRAF6 as indicated. For UbcHSc-catalyzed ubiquitination, UbcHSc (E2-627), instead of Ubc13 and Uev1A, was used in the reaction. […] The reactions were terminated by the addition of an equal volume of SDSPAGE sample buffer, and the products were analyzed by western blotting with a ubiquitin specific antibody.

The subject of another experiment is multiple myeloma cells. Briefly: Growth of multiple myeloma cells, trypan blue exclusion assay. In kind it is cell-based. Conditions: 24 hours. Here is the method:
The indicated multiple myeloma cells were seeded at 300,000 cells/mL in 6-well plates and cultured in the presence of DMSO (0.2%, control) or various concentrations of NSC697923 for 24 hours. The live and dead cells were counted using the trypan blue exclusion assay. Shown are the means from 3 separate experiments. The average number of live cells in the control was set at 100.
It has been shown that multiple myeloma cells also depend on NF-kB signaling for survival. It was thus hypothesized that these cells may also sensitive to NSC697923 treatment. […] The indicated multiple myeloma cells were seeded at 300,000 cells/mL in 6-well plates and cultured in the presence of DMSO (0.2%, control) or various concentrations of NSC697923 for 24 hours. The live and dead cells were counted using the trypan blue exclusion assay. Shown are the means from 3 separate experiments. The average number of live cells in the control was set at 100.

Turning to `Cc1ccc(S(=O)(=O)c2ccc([N+](=O)[O-])o2)cc1` [NSC697923, 2-nitro-5-tosylfuran], in experiment [1], the “IκBα phosphorylation by LPS” value was “inhibited”. Also, the “polyubiquitin chain formation catalyzed by Ubc13-Uev1A” value at Ubc13-Uev1A (E1, ubiquitin, Ubc13, Uev1A, without E3) is listed as “inhibited polyubiquitin chain formation catalyzed by Ubc13-Uev1A complex in a dose-dependent manner”. At Ubc13-Uev1A (GST-TRAF6 as E3), the “ubiquitin chain formation catalyzed by Ubc13-Uev1A together with TRAF6” value is “similarly inhibited by NSC697923 in a dose-dependent manner”. In addition, the “growth of multiple myeloma cells” value in the experiment on multiple myeloma cells is on record as “inhibits the growth of multiple myeloma cells”.
